For series [1], the system named is hepatic P450 monoxygenase activities. Briefly: O-dealkylation of 7-methoxyresorufin in hepatic microsomes. The settings on record: CPRlox/- +CreALB mice, nmol metabolite per nmol P450.
Series [2] relates to control, CPR heterozygous null and hepatic CPR null mice. Briefly: Pentobarbital sleep time (regain of righting reflex). It counts as in vivo, mouse. The settings on record: 20 mg/kg i.p. How it is done:
c Time taken for regain of righting reflex in adult male mice of various genotypes following treatment with sodium pentobarbital at 20 mg/kg i.p. (n=3). Values are expressed as mean±SEM.
Pentobarbital sleep time—adult male CPR^lox/lox+Cre^ALB, CPR^lox/−+Cre^ALB, CPR^lox/− and CPR^+/++Cre^ALB mice (n=3) were given a single intraperitoneal (i.p.) dose of sodium pentobarbitone (Sagatal) at 20 mg/kg body weight. The time taken for the mice to lose, and subsequently to regain, their righting reflex was measured.
Cytochrome P450s involved in drug metabolism are distributed throughout the tissues of the body; it has been estimated that a significant proportion of drug metabolism (up to 30%) may be extra-hepatic. In order to test the level of extra-hepatic metabolism as well as the in vivo effects of hepatic CPR nulls on drug disposition, we measured barbiturate-induced sleeping times. This method has been used since the 1960s as an indicator of drug metabolising activity.

Series [3] deals with hepatic P450 monoxygenase activities. Briefly: Microsomal hydroxylation of testosterone in liver microsomes. The settings on record: liver microsomes of hepatic CPR nulls of both sexes.

For the compound `COc1ccc2nc3ccc(=O)cc-3oc2c1` [7-methoxyresortifin], the “reduction of O-dealkylation” value in series [1] (females) is on record as 98.5%; in series [1] (males), 99.5%.

Turning to `CCCC(C)C1(CC)C(=O)NC(=O)NC1=O` (stereo not drawn) [pentobarbitone], the average sleeping period entry in series [2] (CPR heterozygous null mice (CPR+/-)) is reported as “approximately 50 minutes”. Also, the induction of sleep entry in series [2] (control mice) was “failed to induce sleep”. In series [2] (mice lacking hepatic CPR (CPRlox/- +CreALB or CPRlox/lox +CreALB)), this compound registered a sleeping period greater than 2 h.

Consider `C[C@]12CC[C@H]3[C@@H](CCC4=CC(=O)CC[C@@]43C)[C@@H]1CC[C@@H]2O` [testosterone], for which the 16-hydroxylation of testosterone entry in series [3] is reported as “undetectable”.
